What was measured:
Format in all cases: physicochemical
[1] = Racemization of L-ACL in ACL/NiCl2 solution with sodium methoxide (Example 1, Table 1); details: 0.20 M NiCl2
Description: A sample of 0.702g. […] The molar ratio of ACL to NiCl2 in this solution is 3.5. […] Samples of 2.0 ml each of the solution were sealed and placed in a 60°C. (50° and 40°) bath. At different time intervals the samples were taken from the bath to determine the extent of racemization of L-ACL. To this end each sample was quenched and adjusted to 5.0 ml with 1N.HCl. […] The latter correlation is indicative of the importance of rendering Ni^+^+ coordinately saturated. It should be noted that even at temperatures as low as 40°C. suitable reaction rates are obtained and, in general, a temperature range of about 40° to about 95°C. may be used.

[2] = Racemization of L-ACL with NiCl2 and base from ion exchange resin (Example 4)
Description: a. A 20 ml ethanol solution containing 8 mmol (D,L-ACL)3 NiCl2 and 8 mmol D,L-ACL was passed through a strongly basic [quaternary ammonium hydroxide type (ANGA-542*)] ion exchange column in about 1 hour. The complex solution was followed by 15 ml ethanol and the combined eluent brought to 50 ml in a volumetric flask.
A reaction solution was prepared from 0.518g (2 mmol) of 50% L-ACL (88% optically pure) in ethanol, 1.13g (4.4 mmol) 50% D,L-ACL in ethanol and 2.48 ml 0.645 M in NiCl2.H2 O in ethanol. This was brought to reflux and 2.5 ml of the solution described above was added. The final quantities thus are total ACL 8 mmol, Ni^+^2, 2 mmol, ^-OH (free or bound to Ni^+^2), 0.3 mmol and Cl^-. 3.7 Mmol, in a total volume of 6.7 ml.
b. A 10 ml sample of 0.90 M NiCl2. H2 O in ethanol, was passed through a weakly basic ion exchange resin (IR-45, supplied by Rohm and Haas Company). The eluent had pH 5.5 (measured with a glass electrode in ethanol; the pH of untreated NiCl2 solution was about 3.7). A 1 ml aliquot of the eluent, containing 0.15 m atoms of Ni^+^+, was mixed with 78 mg (0.60 mmols) of L-ACL in 1 ml methanol. The mixture was heated in a sealed vial at 80°C. for 30 minutes.

[3] = Racemization of L-ACL.HCl/L-ACL with catalysts (Examples 13-42, Table IV); details: 15 minutes at 70°C, Cu^II (5-nitrosalicylaldehyde)2, H2O/dimethylformamide 20/80
Description: A solution containing 0.160g (1.25 mmol) L-ACL, 0.206g (1.25 mmol) L-ACL.HCl and […] of Cu^II (5-nitrosalicylaldehyde)2 in 20/80 (v/v) H2 O/dimethylformamide (10 ml overall volume) was heated for 15 minutes at 70°C.
Following the procedure of Example 13, racemization of L-ACL.HCl was conducted in the presence of various catalysts and under various conditions of temperature and concentration; the data is summarized in Table IV.

Row | Structure (SMILES) | Racemization Rate t1/2 ([1]; ACL/NiCl2 mole ratio 3.5, Ethanol, 60°C) [h] | Racemization Rate t1/2 ([1]; ACL/NiCl2 mole ratio 3.5, Methanol, 40°C) [h] | Racemization Rate t1/2 ([1]; ACL/NiCl2 mole ratio 3.5, Methanol, 50°C) [h] | Racemization Rate t1/2 ([1]; ACL/NiCl2 mole ratio 4, Ethanol, 60°C) [h] | Racemization Rate t1/2 ([1]; ACL/NiCl2 mole ratio 4, Methanol, 40°C) [h] | Racemization Rate t1/2 ([1]; ACL/NiCl2 mole ratio 4, Methanol, 50°C) [h] | Racemization Rate t1/2 ([1]; ACL/NiCl2 mole ratio 5, Ethanol, 60°C) [h] | Racemization Rate t1/2 ([1]; ACL/NiCl2 mole ratio 5, Methanol, 40°C) [h] | Racemization Rate t1/2 ([1]; ACL/NiCl2 mole ratio 5, Methanol, 50°C) [h] | Racemization Rate t1/2 ([1]; ACL/NiCl2 mole ratio 6, Ethanol, 60°C) [h] | Racemization Rate t1/2 ([1]; ACL/NiCl2 mole ratio 6, Methanol, 40°C) [h] | Racemization Rate t1/2 ([1]; ACL/NiCl2 mole ratio 6, Methanol, 50°C) [h] | extent of racemization ([2]; 80°C, 30 minutes, NiCl2 eluent from IR-45 resin, methanol) | t1/2 of racemization ([2]; ethanol, reflux (~80°C), NiCl2, base from ANGA-542 resin) [h] | extent of racemization [3]
1 | N[C@H]1CCCCNC1=O [L-ACL, L-α-amino-ε-caprolactam] | 1.17 | 16.73 | 5.67 | 0.717 | 12.8 | 4.33 | 0.433 | 9.72 | 2.7 | 0.367 | 10.2 | 2.83 | completely racemized | 0.175 | –
2 | Cl.N[C@H]1CCCCNC1=O [L-ACL.HCl, L-α-amino-ε-caprolactam hydrochloride] | – | – | – | – | – | – | – | – | – | – | – | – | – | – | complete racemization

Reference: patent US3941776A, “Resolution/racemization of aminolactam compounds” (Allied Chemical Corporation, priority 1974, dated 1976)
